Experimental data reported in patent US20220257704A1, “COMBINATION OF CHEMOTHERAPY WITH RECOMBINANT S. ROLFSII LECTIN” (Unichem Laboratories Ltd, priority 2018, published 2022).
Read-outs that look alike come from different tables or passages of the source.

Tests used:
Assay in all cases: MTT cytotoxicity assay, 48 h, alone and in combination (IC50 and Combination Index)
Assay type in all cases: cell-based
MDA-MB-231 cell line = conditions: read-out: IC50 of Carboplatin
Description: (§1) The cell were kept in contact with the recombinant lectin of SEQ ID NO: 1 and the chemotherapy agent for 48 h and the cytotoxic effect (percentage cytotoxicity) was measured. The cytotoxic effect was determined by well-known colorimetric MTT assay (Mossman, T. 1983 Rapid colorimetric assay for cellular growth and survival: application to proliferation and cytotoxicity assays Journal of Immunological Methods, volume 65, pages 55-63) for assessing cell metabolic activity.
(§2) Based on percentage cytotoxicity data, IC50 values were determined using the software GraphPad Prism version 4.01.
(§3) Combination Index (CI) values were determined for each drug concentration combination. The CI values were calculated based on the IC50 values using the formula as given in below.
A study was performed to determine the effect of the concentration of the recombinant lectin represented by SEQ ID NO: 1 on the IC50 of Paclitaxel for cytotoxicity in MDA-MB-231 cells. Conversely the effect of the concentration of Paclitaxel on the IC50 of the recombinant lectin represented by SEQ ID NO: 1.
Similarly another study was performed for Carboplatin in combination with the recombinant lectin of SEQ ID NO: 1.
In a further study, MDA-MB-231 cells were treated with Paclitaxel (0.001 nM-10 nM) in combination with SEQ ID NO: 1(2.5 μg/mL-80 μg/mL) for 48 h. Similarly another set of cells were treated with Carboplatin (10 μM-1000 μM) in combination with SEQ ID NO: 1 (2.5 μg/mL-80 μg/mL).

KB cell line = conditions: read-out: IC50 of Cisplatin
Description: A study was performed to determine the effect of the concentration of the recombinant lectin represented by SEQ ID NO: 1 on the IC50 of5-FU for cytotoxicity in KB cells.
Similarly another study was performed for Cisplatin in combination with the recombinant lectin of SEQ ID NO: 1.
Similarly another set of cells were treated with Cisplatin(0.1 μM to 1.5 μM)in combination with SEQ ID NO: 1(5.0 μg/mL-90 μg/mL).

PA-1 cell line = conditions: read-out: IC50 of Cisplatin
Description: In a further study, PA-1 cells were treated with Cisplatin(0.01 μM-5 μM) in combination with SEQ ID NO: 1(1 μg/mL-20 μg/mL) for 48 h. Similarly another set of cells were treated with Paclitaxel (0.01 nM-5 nM) in combination with SEQ ID NO: 1 (1 μg/mL-20 μg/mL).

T24 cell line = conditions: for Conc. of other therapeutic agents showing synergistic effect: paired with SEQ ID NO: 1 conc.
Description: as §1, §2, §3
A study was performed to determine the effect of the concentration of the recombinant lectin represented by SEQ ID NO: 1 on the IC50 of Cisplatin for cytotoxicity in T24 cells. Conversely the effect of the concentration of Cisplatin on the IC50 of the recombinant lectin represented by SEQ ID NO: 1.
Similarly another study was performed for Gemcitabine in combination with the recombinant lectin of SEQ ID NO: 1.
This was performed using the same techniques as in Example 1-1.
In a further study, T24 cells were treated with Cisplatin (1 μM-500 μM) in combination with SEQ ID NO: 1(2.5 μg/mL-80 μg/mL) for 48 h. Similarly another set of cells were treated with Gemcitabine (1 μM-300 μM) in combination with SEQ ID NO: 1 (2.5 μg/mL-80 μg/mL). Combination Index values were determined for each drug combination and resultant antagonistic, additive or synergistic effect was determined, as described in Example 1-2.

PANC-1 cell line = conditions: Homo sapiens, read-out: IC50 of Gemcitabine
Description: The cytotoxic effect on each combination was determined by MTT assay.
as §3

Question: What does the source list for `N.N.O=C([O-])C1(C(=O)[O-])CCC1.[Pt+2]` [Carboplatin, reference compound]?
Answer: IC50 (MDA-MB-231 cell line; SEQ ID NO: 1 at 0 μg/mL): 477000 nM; IC50 (MDA-MB-231 cell line; SEQ ID NO: 1 at 5 μg/mL): 3980 nM; IC50 (MDA-MB-231 cell line; SEQ ID NO: 1 at 10 μg/mL): 4920 nM; IC50 (MDA-MB-231 cell line; SEQ ID NO: 1 at 20 μg/mL): 8440 nM; IC50 (MDA-MB-231 cell line; SEQ ID NO: 1 at 40 μg/mL): 1420 nM; IC50 (MDA-MB-231 cell line; SEQ ID NO: 1 at 80 μg/mL): 5870 nM; IC50 (MDA-MB-231 cell line; SEQ ID NO: 1 at […]): 226000 nM

Question: Which results are given for `N.N.[Cl][Pt][Cl]` [Cisplatin, reference compound]?
Answer: IC50 (KB cell line; SEQ ID NO: 1 at 0 μg/mL): 722 nM; IC50 (KB cell line; SEQ ID NO: 1 at 5 μg/mL): 375 nM; IC50 (KB cell line; SEQ ID NO: 1 at 10 μg/mL): 269 nM; IC50 (KB cell line; SEQ ID NO: 1 at 20 μg/mL): 134 nM; IC50 (KB cell line; SEQ ID NO: 1 at 30 μg/mL): 66.2 nM; IC50 (KB cell line; SEQ ID NO: 1 at 40 μg/mL): 7.12 nM; IC50 (KB cell line; SEQ ID NO: 1 at 90 μg/mL): 9.93 nM; IC50 (PA-1 cell line; SEQ ID NO: 1 at 1 μg/mL): 716 nM; IC50 (PA-1 cell line; SEQ ID NO: 1 at 5 μg/mL): 93 nM; IC50 (PA-1 cell line; SEQ ID NO: 1 at 10 μg/mL): 4.2 nM; IC50 (PA-1 cell line; SEQ ID NO: 1 at 15 μg/mL): 0.5 nM; IC50 (PA-1 cell line; SEQ ID NO: 1 at 20 μg/mL): 0.1 nM; IC50 (PA-1 cell line; SEQ ID NO: 1 at […]): 314 nM; Conc. of other therapeutic agents showing synergistic effect (T24 cell line; Cisplatin with SEQ ID NO: 1): 1 to 500 µM; IC50 (T24 cell line; SEQ ID NO: 1 at 0 μg/mL, read-out: IC50 of Cisplatin): 39000 nM; IC50 (T24 cell line; SEQ ID NO: 1 at 5 μg/mL, read-out: IC50 of Cisplatin): 3800 nM; IC50 (T24 cell line; SEQ ID NO: 1 at 10 μg/mL, read-out: IC50 of Cisplatin): 97.1 nM; IC50 (T24 cell line; SEQ ID NO: 1 at 20 μg/mL, read-out: IC50 of Cisplatin): 34.4 nM; IC50 (T24 cell line; SEQ ID NO: 1 at 40 μg/mL, read-out: IC50 of Cisplatin): 83.6 nM; IC50 (T24 cell line; SEQ ID NO: 1 at 80 μg/mL, read-out: IC50 of Cisplatin): 13.4 nM; IC50 (T24 cell line; SEQ ID NO: 1 at […], read-out: IC50 of Cisplatin): 22900 nM

Question: Which results are given for `Nc1ccn([C@@H]2O[C@H](CO)[C@@H](O)C2(F)F)c(=O)n1` [Gemcitabine, reference compound]?
Answer: IC50 (PANC-1 cell line; PANC-1, SEQ ID NO: 1 at 0 μg/mL): 7410 nM; IC50 (PANC-1 cell line; PANC-1, SEQ ID NO: 1 at 5 μg/mL): 10800 nM; IC50 (PANC-1 cell line; PANC-1, SEQ ID NO: 1 at 10 μg/mL): 3040 nM; IC50 (PANC-1 cell line; PANC-1, SEQ ID NO: 1 at 20 μg/mL): 39 nM; IC50 (PANC-1 cell line; PANC-1, SEQ ID NO: 1 at 40 μg/mL): 38 nM; IC50 (PANC-1 cell line; PANC-1, SEQ ID NO: 1 at 80 μg/mL): 10600 nM; IC50 (PANC-1 cell line; PANC-1, SEQ ID NO: 1 at […]): 15900 nM; Conc. of other therapeutic agents showing synergistic effect (T24 cell line; Gemcitabine with SEQ ID NO: 1): 1 to 300 µM; IC50 (T24 cell line; Homo sapiens, T-24, SEQ ID NO: 1 at 0 μg/mL, read-out: IC50 of Gemcitabine): 15400 nM; IC50 (T24 cell line; Homo sapiens, T-24, SEQ ID NO: 1 at 5 μg/mL, read-out: IC50 of Gemcitabine): 141 nM; IC50 (T24 cell line; Homo sapiens, T-24, SEQ ID NO: 1 at 10 μg/mL, read-out: IC50 of Gemcitabine): 0.32 nM; IC50 (T24 cell line; Homo sapiens, T-24, SEQ ID NO: 1 at 20 μg/mL, read-out: IC50 of Gemcitabine): 0.02 nM; IC50 (T24 cell line; Homo sapiens, T-24, SEQ ID NO: 1 at […], read-out: IC50 of Gemcitabine): 802 nM
